Measured values from PubChem BioAssay (NCI).
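Dose response: 5 concentrations. Exposure: 48 h. Format: 96-well plates. Endpoint: linear interpolation; highest concentration if not reached. GI50 marks 50% less growth. At the TGI there is no net growth.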

What was measured:
Experiment in all cases: DTP human tumour cell line panel, 48 h
SNB-75 CNS = system: SNB-75 CNS
NCI-H460 lung = system: NCI-H460 lung
HS 578T breast = system: HS 578T breast
HOP-92 NSCLC = system: HOP-92 NSCLC
K-562 leukemia = system: K-562 leukemia
MDA-MB-468 breast = system: MDA-MB-468 breast
CAKI-1 renal = system: CAKI-1 renal
SK-MEL-2 melanoma = system: SK-MEL-2 melanoma
SF-539 CNS = system: SF-539 CNS
DU-145 prostate = system: DU-145 prostate
NCI-H522 lung = system: NCI-H522 lung
OVCAR-4 ovarian = system: OVCAR-4 ovarian
KM12 colon = system: KM12 colon
SNB-19 CNS = system: SNB-19 CNS
UACC-62 melanoma = system: UACC-62 melanoma
T-47D breast = system: T-47D breast
HOP-62 NSCLC = system: HOP-62 NSCLC
NCI-H226 lung = system: NCI-H226 lung
SR leukemia = system: SR leukemia
UO-31 renal = system: UO-31 renal
HCT-15 colon = system: HCT-15 colon
ACHN renal = system: ACHN renal
HL-60(TB) leukemia = system: HL-60(TB) leukemia
UACC-257 melanoma = system: UACC-257 melanoma
OVCAR-5 ovarian = system: OVCAR-5 ovarian
BT-549 breast = system: BT-549 breast
SK-MEL-28 melanoma = system: SK-MEL-28 melanoma
SF-268 CNS = system: SF-268 CNS
SK-OV-3 ovarian = system: SK-OV-3 ovarian
NCI/ADR-RES ovarian = system: NCI/ADR-RES ovarian
786-0 renal = system: 786-0 renal
MCF7 breast = system: MCF7 breast
MDA-MB-231 breast = system: MDA-MB-231 breast
MDA-MB-435 = system: MDA-MB-435
A498 renal = system: A498 renal
TK-10 renal = system: TK-10 renal
SW-620 colon = system: SW-620 colon
MALME-3M melanoma = system: MALME-3M melanoma
EKVX NSCLC = system: EKVX NSCLC
HCC-2998 colon = system: HCC-2998 colon
U251 CNS = system: U251 CNS
A549 NSCLC = system: A549 NSCLC
LOX IMVI melanoma = system: LOX IMVI melanoma
NCI-H23 lung = system: NCI-H23 lung
OVCAR-3 ovarian = system: OVCAR-3 ovarian
MOLT-4 leukemia = system: MOLT-4 leukemia
RXF 393 renal = system: RXF 393 renal
PC-3 prostate = system: PC-3 prostate
COLO 205 colon = system: COLO 205 colon
SK-MEL-5 melanoma = system: SK-MEL-5 melanoma
RPMI-8226 leukemia = system: RPMI-8226 leukemia
SF-295 CNS = system: SF-295 CNS
HCT-116 colon = system: HCT-116 colon
CCRF-CEM leukemia = system: CCRF-CEM leukemia
HT29 colon = system: HT29 colon
IGROV1 ovarian = system: IGROV1 ovarian
M14 melanoma = system: M14 melanoma
OVCAR-8 ovarian = system: OVCAR-8 ovarian
SN12C renal = system: SN12C renal

SMILES: COc1cccc(/C=N/NC(=O)c2ccc3nc(-c4ccc(Cl)cc4)[nH]c3c2)c1O
- GI50 (SNB-75 CNS): 231 nM
- TGI (SNB-75 CNS): 1380 nM
- GI50 (NCI-H460 lung): 1340 nM
- TGI (NCI-H460 lung): 2770 nM
- GI50 (HS 578T breast): 705 nM
- TGI (HS 578T breast): 2900 nM
- GI50 (HOP-92 NSCLC): 670 nM
- TGI (HOP-92 NSCLC): 2400 nM
- GI50 (K-562 leukemia): 332 nM
- GI50 (MDA-MB-468 breast): 611 nM
- TGI (MDA-MB-468 breast): 1450 nM
- GI50 (CAKI-1 renal): 1010 nM
- TGI (CAKI-1 renal): 3.51 µM
- GI50 (SK-MEL-2 melanoma): 378 nM
- TGI (SK-MEL-2 melanoma): 1490 nM
- GI50 (SF-539 CNS): 428 nM
- TGI (SF-539 CNS): 1020 nM
- GI50 (DU-145 prostate): 1340 nM
- TGI (DU-145 prostate): 3.28 µM
- GI50 (NCI-H522 lung): 1170 nM
- TGI (NCI-H522 lung): 2810 nM
- GI50 (OVCAR-4 ovarian): 728 nM
- TGI (OVCAR-4 ovarian): 3.18 µM
- GI50 (KM12 colon): 715 nM
- TGI (KM12 colon): 1880 nM
- GI50 (SNB-19 CNS): 1310 nM
- TGI (SNB-19 CNS): 2590 nM
- GI50 (UACC-62 melanoma): 607 nM
- TGI (UACC-62 melanoma): 1770 nM
- GI50 (T-47D breast): 389 nM
- TGI (T-47D breast): 2010 nM
- GI50 (HOP-62 NSCLC): 570 nM
- TGI (HOP-62 NSCLC): 1850 nM
- GI50 (NCI-H226 lung): 1650 nM
- TGI (NCI-H226 lung): 4 µM
- GI50 (SR leukemia): 369 nM
- TGI (SR leukemia): 3.75 µM
- GI50 (UO-31 renal): 1010 nM
- TGI (UO-31 renal): > 48 µM
- GI50 (HCT-15 colon): 1310 nM
- TGI (HCT-15 colon): > 40 µM
- GI50 (ACHN renal): 1320 nM
- TGI (ACHN renal): 6.25 µM
- GI50 (HL-60(TB) leukemia): 1070 nM
- TGI (HL-60(TB) leukemia): 4.63 µM
- GI50 (UACC-257 melanoma): 1190 nM
- TGI (UACC-257 melanoma): 3.53 µM
- GI50 (OVCAR-5 ovarian): 1850 nM
- TGI (OVCAR-5 ovarian): 5.08 µM
- GI50 (BT-549 breast): 673 nM
- TGI (BT-549 breast): 1790 nM
- GI50 (SK-MEL-28 melanoma): 1000 nM
- TGI (SK-MEL-28 melanoma): 2930 nM
- GI50 (SF-268 CNS): 484 nM
- TGI (SF-268 CNS): 1520 nM
- GI50 (SK-OV-3 ovarian): 1030 nM
- TGI (SK-OV-3 ovarian): 2790 nM
- GI50 (NCI/ADR-RES ovarian): > 100 µM
- TGI (NCI/ADR-RES ovarian): > 100 µM
- GI50 (786-0 renal): 1060 nM
- TGI (786-0 renal): 2520 nM
- GI50 (MCF7 breast): 660 nM
- TGI (MCF7 breast): 3.38 µM
- GI50 (MDA-MB-231 breast): 988 nM
- TGI (MDA-MB-231 breast): 3.15 µM
- GI50 (MDA-MB-435): 1010 nM
- TGI (MDA-MB-435): 2830 nM
- GI50 (A498 renal): 5 µM
- TGI (A498 renal): 11.9 µM
- GI50 (TK-10 renal): 4.07 µM
- TGI (TK-10 renal): 15.9 µM
- GI50 (SW-620 colon): 1320 nM
- TGI (SW-620 colon): 3.52 µM
- GI50 (MALME-3M melanoma): 1360 nM
- TGI (MALME-3M melanoma): 2890 nM
- GI50 (EKVX NSCLC): 2120 nM
- TGI (EKVX NSCLC): 9.8 µM
- GI50 (HCC-2998 colon): 800 nM
- TGI (HCC-2998 colon): 2200 nM
- GI50 (U251 CNS): 1500 nM
- TGI (U251 CNS): 3.08 µM
- GI50 (A549 NSCLC): 3.68 µM
- TGI (A549 NSCLC): 14.8 µM
- GI50 (LOX IMVI melanoma): 1180 nM
- TGI (LOX IMVI melanoma): 2530 nM
- GI50 (NCI-H23 lung): 525 nM
- TGI (NCI-H23 lung): 1540 nM
- GI50 (OVCAR-3 ovarian): 353 nM
- TGI (OVCAR-3 ovarian): 1050 nM
- GI50 (MOLT-4 leukemia): 421 nM
- TGI (MOLT-4 leukemia): 2460 nM
- GI50 (RXF 393 renal): 972 nM
- TGI (RXF 393 renal): 2460 nM
- GI50 (PC-3 prostate): 1350 nM
- TGI (PC-3 prostate): 4.67 µM
- GI50 (COLO 205 colon): 1580 nM
- TGI (COLO 205 colon): 3.56 µM
- GI50 (SK-MEL-5 melanoma): 772 nM
- TGI (SK-MEL-5 melanoma): 2090 nM
- GI50 (RPMI-8226 leukemia): 2220 nM
- TGI (RPMI-8226 leukemia): 5.54 µM
- GI50 (SF-295 CNS): 2200 nM
- TGI (SF-295 CNS): 5.46 µM
- GI50 (HCT-116 colon): 1190 nM
- TGI (HCT-116 colon): 2570 nM
- GI50 (CCRF-CEM leukemia): 425 nM
- TGI (CCRF-CEM leukemia): 3.77 µM
- GI50 (HT29 colon): 4.17 µM
- TGI (HT29 colon): 19.3 µM
- GI50 (IGROV1 ovarian): 1250 nM
- TGI (IGROV1 ovarian): 3.14 µM
- GI50 (M14 melanoma): 1010 nM
- TGI (M14 melanoma): 4.28 µM
- GI50 (OVCAR-8 ovarian): 1580 nM
- TGI (OVCAR-8 ovarian): 4.39 µM
- GI50 (SN12C renal): 1080 nM
- TGI (SN12C renal): 2590 nM
